Experimental data taken from the supplement of paper PMC6045584.
± gives the standard deviation of the averaged measurements.

Legend:
LAPATINIB = compound: CS(=O)(=O)CCNCc1ccc(-c2ccc3ncnc(Nc4ccc(OCc5cccc(F)c5)c(Cl)c4)c3c2)o1 [LAPATINIB]; assay: surviving fraction relative to DMSO-only wells; higher = less growth inhibition; conditions: exposure time: 5 days
Outline: (§1)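 Viability values are CellTiter-Glo luminescence readings, given as surviving fraction against the median of DMSO-only wells. The readings were taken after 10 minutes at room temperature, following five days of continuous exposure to inhibitors at 0.5, 1, 5, 10, 50, 100, 500 and 1000 nM that began 24 hours after log-phase tumour cell lines were seeded at 250–500 cells per well in 384-well plates. Every line was screened three times and kept only if replicate Pearson r >0.7 and median Z' >0.3.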

FLAVOPIRIDOL = compound: CN1CC[C@H](c2c(O)cc(O)c3c(=O)cc(-c4ccccc4Cl)oc23)[C@H](O)C1 [FLAVOPIRIDOL]; assay: as above; conditions: exposure time: 5 days
Outline: as §1

Row | Test System | surviving fraction (LAPATINIB; 0.5 nM) | surviving fraction (LAPATINIB; 1 nM) | surviving fraction (LAPATINIB; 5 nM) | surviving fraction (LAPATINIB; 10 nM) | surviving fraction (LAPATINIB; 50 nM) | surviving fraction (LAPATINIB; 100 nM) | surviving fraction (LAPATINIB; 500 nM) | surviving fraction (LAPATINIB; 1000 nM) | surviving fraction (FLAVOPIRIDOL; 0.5 nM) | surviving fraction (FLAVOPIRIDOL; 1 nM) | surviving fraction (FLAVOPIRIDOL; 5 nM) | surviving fraction (FLAVOPIRIDOL; 10 nM) | surviving fraction (FLAVOPIRIDOL; 50 nM) | surviving fraction (FLAVOPIRIDOL; 100 nM) | surviving fraction (FLAVOPIRIDOL; 500 nM) | surviving fraction (FLAVOPIRIDOL; 1000 nM)
1 | SUM44 BREAST | 1.05 ± 0.069 | 1.11 ± 0.19 | 1.11 ± 0.066 | 1.17 ± 0.21 | 1.04 ± 0.045 | 1.21 ± 0.17 | 1.08 ± 0.07 | 1.24 ± 0.18 | 1.14 ± 0.35 | 1.17 ± 0.16 | 1.22 ± 0.23 | 1.22 ± 0.27 | 1.08 ± 0.24 | 0.283 ± 0.012 | 0.119 ± 0.039 | 0.104 ± 0.036
2 | MDAMB134 BREAST | 0.967 ± 0.017 | 0.963 ± 0.1 | 0.975 ± 0.028 | 1 ± 0.14 | 1.04 ± 0.19 | 0.966 ± 0.083 | 0.956 ± 0.071 | 0.806 ± 0.062 | 1 ± 0.019 | 0.991 ± 0.041 | 1.09 ± 0.037 | 1.13 ± 0.088 | 1.52 ± 0.23 | 0.977 ± 0.15 | 0.303 ± 0.016 | 0.2765 ± 0.0021
3 | MHM BONE | 0.9907 ± 0.0093 | 1 ± 0.015 | 1.05 ± 0.014 | 1.07 ± 0.037 | 1.02 ± 0.027 | 1.02 ± 0.014 | 0.992 ± 0.033 | 1.01 ± 0.024 | 1.02 ± 0.036 | 1.04 ± 0.035 | 1.06 ± 0.024 | 1.11 ± 0.025 | 1.227 ± 0.0078 | 1.16 ± 0.048 | 0.0433 ± 0.0021 | 0.0397 ± 0.0021
4 | HCT15 LARGE INTESTINE | 1.01 ± 0.082 | 1.12 ± 0.098 | 1.04 ± 0.059 | 1.06 ± 0.076 | 0.988 ± 0.078 | 1.08 ± 0.07 | 1.04 ± 0.032 | 1.05 ± 0.071 | 1.06 ± 0.085 | 0.963 ± 0.12 | 0.991 ± 0.13 | 0.92 ± 0.12 | 0.45 ± 0.035 | 0.103 ± 0.013 | 0.0417 ± 0.0025 | 0.0417 ± 0.0015
5 | VCAP PROSTATE | 0.835 ± 0.089 | 0.828 ± 0.047 | 0.889 ± 0.21 | 1.15 ± 0.049 | 0.957 ± 0.07 | 0.901 ± 0.1 | 0.839 ± 0.035 | 0.956 ± 0.073 | 1.05 ± 0.085 | 1.02 ± 0.079 | 1.42 ± 0.065 | 1.52 ± 0.076 | 0.87 ± 0.058 | 0.324 ± 0.031 | 0.042 ± 0.01 | 0.051 ± 0.031
6 | HCC78 LUNG | 0.98 ± 0.029 | 0.972 ± 0.093 | 1.01 ± 0.038 | 0.795 ± 0.26 | 0.82 ± 0.075 | 0.944 ± 0.1 | 0.857 ± 0.12 | 0.872 ± 0.12 | 1.08 ± 0.18 | 0.94 ± 0.032 | 0.898 ± 0.11 | 0.809 ± 0.25 | 0.151 ± 0.032 | 0.0467 ± 0.0059 | 0.0207 ± 0.00058 | 0.02
7 | SUM149.B1*.S BREAST | 1.08 ± 0.049 | 1.23 ± 0.033 | 1.12 ± 0.023 | 1.11 ± 0.026 | 0.995 ± 0.06 | 1.07 ± 0.057 | 1.09 ± 0.035 | 1.05 ± 0.038 | 1.1 ± 0.047 | 1.09 ± 0.024 | 1.08 ± 0.063 | 1.044 ± 0.0039 | 1 ± 0.037 | 0.459 ± 0.06 | 0.0462 ± 0.0049 | 0.0412 ± 0.0016
8 | NY BONE | 1.02 ± 0.025 | 1.03 ± 0.042 | 1.05 ± 0.025 | 1.1 ± 0.05 | 1 ± 0.028 | 1.1 ± 0.046 | 0.9837 ± 0.0064 | 1.04 ± 0.027 | 0.984 ± 0.015 | 0.977 ± 0.017 | 1.05 ± 0.027 | 1.01 ± 0.05 | 0.813 ± 0.071 | 0.0513 ± 0.01 | 0.025 ± 0.001 | 0.024 ± 0.001
9 | CHLA90 AUTONOMIC GANGLIA | 0.964 ± 0.031 | 0.99 ± 0.07 | 1.01 ± 0.052 | 0.947 ± 0.051 | 0.965 ± 0.06 | 0.981 ± 0.11 | 0.931 ± 0.073 | 0.875 ± 0.11 | 0.987 ± 0.1 | 1 ± 0.12 | 0.906 ± 0.083 | 0.878 ± 0.021 | 0.826 ± 0.11 | 0.573 ± 0.072 | 0.0277 ± 0.0015 | 0.0247 ± 0.00058
10 | SAOS2 BONE | 1.14 ± 0.027 | 1.19 ± 0.066 | 1.24 ± 0.038 | 1.24 ± 0.049 | 1.18 ± 0.065 | 1.24 ± 0.099 | 1.21 ± 0.11 | 1.15 ± 0.22 | 1.23 ± 0.13 | 1.18 ± 0.06 | 1.26 ± 0.039 | 1.14 ± 0.04 | 0.889 ± 0.048 | 0.159 ± 0.022 | 0.0307 ± 0.0015 | 0.0247 ± 0.0025
11 | SNU475 LIVER | 1.01 ± 0.013 | 1.03 ± 0.04 | 1.01 ± 0.027 | 0.992 ± 0.035 | 0.953 ± 0.042 | 1 ± 0.041 | 0.987 ± 0.047 | 0.954 ± 0.04 | 1.05 ± 0.041 | 1 ± 0.032 | 1.09 ± 0.015 | 1.07 ± 0.072 | 1.02 ± 0.026 | 0.438 ± 0.048 | 0.0423 ± 0.0046 | 0.0407 ± 0.0029
12 | HSSYII SYNOVIAL | 0.98 ± 0.042 | 0.943 ± 0.022 | 0.947 ± 0.051 | 0.973 ± 0.033 | 0.947 ± 0.064 | 1.04 ± 0.087 | 0.969 ± 0.034 | 0.927 ± 0.01 | 0.999 ± 0.021 | 0.993 ± 0.025 | 1.01 ± 0.083 | 0.907 ± 0.037 | 0.564 ± 0.034 | 0.145 ± 0.017 | 0.0215 ± 0.0005 | 0.0212 ± 0.00058
13 | LNCAP PROSTATE | 0.894 ± 0.055 | 0.981 ± 0.02 | 0.917 ± 0.086 | 0.981 ± 0.033 | 0.937 ± 0.061 | 0.891 ± 0.038 | 0.995 ± 0.035 | 0.951 ± 0.21 | 0.884 ± 0.014 | 0.917 ± 0.0082 | 0.849 ± 0.038 | 0.84 ± 0.015 | 0.409 ± 0.071 | 0.028 ± 0.0036 | 0.043 ± 0.0027 | 0.0397 ± 0.0011
14 | SCC90 HEADNECK | 1.02 ± 0.038 | 1.01 ± 0.1 | 1.01 ± 0.087 | 0.971 ± 0.04 | 0.845 ± 0.037 | 0.802 ± 0.067 | 0.532 ± 0.015 | 0.508 ± 0.023 | 1.07 ± 0.099 | 1.08 ± 0.072 | 1.12 ± 0.085 | 1.07 ± 0.12 | 0.834 ± 0.079 | 0.378 ± 0.086 | 0.0317 ± 0.0057 | 0.027 ± 0.002
15 | HOSMNG BONE | 0.92 ± 0.06 | 1.04 ± 0.05 | 0.88 ± 0.081 | 0.827 ± 0.12 | 0.848 ± 0.064 | 0.867 ± 0.11 | 0.89 ± 0.084 | 1.06 ± 0.08 | 0.977 ± 0.05 | 0.991 ± 0.049 | 1 ± 0.011 | 0.981 ± 0.024 | 1.01 ± 0.079 | 0.498 ± 0.021 | 0.059 ± 0.007 | 0.0577 ± 0.0065
16 | JURKAT HAEMATOPOIETIC AND LYMPHOID TISSUE | 0.997 ± 0.078 | 1.02 ± 0.061 | 0.936 ± 0.037 | 0.959 ± 0.017 | 0.933 ± 0.055 | 0.947 ± 0.025 | 1.01 ± 0.012 | 1.011 ± 0.0081 | 1.04 ± 0.018 | 1.07 ± 0.046 | 1.05 ± 0.026 | 1.04 ± 0.042 | 0.708 ± 0.022 | 0.119 ± 0.0035 | 0.031 ± 0.001 | 0.0303 ± 0.0011
17 | 143B BONE | 0.986 ± 0.065 | 1.07 ± 0.057 | 0.931 ± 0.14 | 0.967 ± 0.11 | 1.01 ± 0.013 | 1.08 ± 0.11 | 1.02 ± 0.016 | 1.01 ± 0.021 | 1.12 ± 0.14 | 1.11 ± 0.086 | 1.11 ± 0.048 | 1.11 ± 0.095 | 0.824 ± 0.024 | 0.279 ± 0.0035 | 0.045 ± 0.0028 | 0.042 ± 0.0028
18 | SG27 HEADNECK | 1.09 ± 0.081 | 1.09 ± 0.056 | 1.1 ± 0.27 | 1.18 ± 0.17 | 0.977 ± 0.14 | 1.04 ± 0.067 | 0.988 ± 0.026 | 1.06 ± 0.06 | 1.16 ± 0.11 | 1.04 ± 0.04 | 0.987 ± 0.12 | 1.02 ± 0.3 | 0.844 ± 0.087 | 0.368 ± 0.063 | 0.0753 ± 0.047 | 0.071 ± 0.032
19 | T47D BREAST | 1.01 ± 0.068 | 1.07 ± 0.036 | 1.08 ± 0.072 | 1.07 ± 0.05 | 1.01 ± 0.019 | 1.04 ± 0.05 | 1 ± 0.041 | 1.01 ± 0.017 | 0.974 ± 0.18 | 1.07 ± 0.022 | 1.01 ± 0.2 | 1.11 ± 0.039 | 1.15 ± 0.051 | 0.67 ± 0.073 | 0.195 ± 0.0027 | 0.148 ± 0.0041
20 | MFM223 BREAST | 1.18 ± 0.13 | 1.18 ± 0.14 | 1.15 ± 0.027 | 1.13 ± 0.081 | 1.058 ± 0.01 | 1.2 ± 0.034 | 1.02 ± 0.084 |  | 1.45 ± 0.57 | 1.45 ± 0.64 | 1.46 ± 0.61 | 1.25 ± 0.4 | 0.351 ± 0.032 | 0.119 ± 0.045 | 0.0438 ± 0.021 | 0.0642 ± 0.061
